Experimental data: patent US10227323B2, “Glucosylceramide synthase inhibitors for the treatment of diseases” (BIOMARIN PHARMACEUTICAL INC., priority 2013, dated 2019)

Molecular target: T1, GCS (Canis lupus familiaris, UniProt A0A8I3MXG6)
T1 sequence (A0A8I3MXG6 1-394): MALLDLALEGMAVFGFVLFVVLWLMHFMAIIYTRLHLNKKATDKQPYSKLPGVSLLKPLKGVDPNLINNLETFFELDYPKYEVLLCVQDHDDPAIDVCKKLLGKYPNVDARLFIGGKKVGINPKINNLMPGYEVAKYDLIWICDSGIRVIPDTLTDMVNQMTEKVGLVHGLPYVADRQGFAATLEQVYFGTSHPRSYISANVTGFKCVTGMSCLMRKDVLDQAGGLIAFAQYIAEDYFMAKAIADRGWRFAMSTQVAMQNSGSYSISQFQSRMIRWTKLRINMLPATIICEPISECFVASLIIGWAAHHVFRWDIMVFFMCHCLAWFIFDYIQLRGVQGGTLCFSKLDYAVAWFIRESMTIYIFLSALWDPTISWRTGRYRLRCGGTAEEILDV
Experiment: Assay 1: GCS Enzymatic Assay (MDCK cell lysate, C6-NBD-Ceramide, LC/MS)
Assay type: biochemical, canine
Conditions: Table 2; data marked by *
Outline: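 LC/MS/MS measurement of glucosylceramide and NBD-ceramide after a 1 h, 37 °C reaction with 100 μM UDP-glucose and 10 μM C6-NBD-ceramide gave IC50s or percent inhibition.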

Row | SMILES | % inhibition generated from Assay 1
1 | O=C(N[C@H](CN1CCC1)[C@H](O)c1ccc(OC2CC2)c(Cl)c1)C(F)(F)c1ccc(-c2ccc(F)cc2)cc1 [Compound 162, N-((1R,2R)-3-(azetidin-1-yl)-1-(3-chloro-4-cyclopropoxyphenyl)-1-hydroxypropan-2-yl)-2,2-difluoro-2-(4′-fluoro-[1,1′-biphenyl]-4-yl)acetamide] | A* (the compound had a % inhibition of a percent inhibition of greater than or equal to about 50%)
2 | O=C(N[C@H](CN1CCC1)[C@H](O)c1ccc(OC2CC2)c(Cl)c1)/C(CCc1ccc2ccccc2c1)=N/O [Compound 164, (E)-N-((1R,2R)-3-(azetidin-1-yl)-1-(3-chloro-4-cyclopropoxyphenyl)-1-hydroxypropan-2-yl)-2-(hydroxyimino)-4-(naphthalen-2-yl)butanamide] | A* (the compound had a % inhibition of a percent inhibition of greater than or equal to about 50%)
3 | CC(C)(O)COc1ccc([C@H](O)[C@@H](CN2CCCC2)NC(=O)C(F)(F)c2cc3cc(Cl)ccc3o2)cc1Cl [Compound 168, N-((1S,2R)-1-(3-chloro-4-(2-hydroxy-2-methylpropoxy)phenyl)-1-hydroxy-3-(pyrrolidin-1-yl)propan-2-yl)-2-(5-chlorobenzofuran-2-yl)-2,2-difluoroacetamide] | B* (the compound had a % inhibition of greater than or equal to about 3% but less than about 50%)
4 | O=C(N[C@H](CN1CCC1)[C@H](O)c1ccc(OC2CC2)c(Cl)c1)/C(=N/O)c1cc2cc(Cl)ccc2o1 [Compound 169, (E)-N-((1R,2R)-3-(azetidin-1-yl)-1-(3-chloro-4-cyclopropoxyphenyl)-1-hydroxypropan-2-yl)-2-(5-chlorobenzofuran-2-yl)-2-(hydroxyimino)acetamide] | A* (the compound had a % inhibition of a percent inhibition of greater than or equal to about 50%)
5 | O=C(CCc1ccc2ccccc2c1)C(=O)N[C@H](CN1CCC1)[C@H](O)c1ccc(OC2CC2)c(Cl)c1 [Compound 170, N-((1R,2R)-3-(azetidin-1-yl)-1-(3-chloro-4-cyclopropoxyphenyl)-1-hydroxypropan-2-yl)-4-(naphthalen-2-yl)-2-oxobutanamide] | B* (the compound had a % inhibition of greater than or equal to about 3% but less than about 50%)
6 | O=C(N[C@H](CN1CCCC1)[C@H](O)c1ccc(OC2CC2)c(Cl)c1)C(F)(F)c1ccc(-c2ccc(F)cn2)cc1 [Compound 178, N-((1R,2R)-1-(3-chloro-4-cyclopropoxyphenyl)-1-hydroxy-3-(pyrrolidin-1-yl)propan-2-yl)-2,2-difluoro-2-(4-(5-fluoropyridin-2-yl)phenyl)acetamide] | A* (the compound had a % inhibition of a percent inhibition of greater than or equal to about 50%)
7 | O=C(N[C@H](CN1CCCC1)[C@H](O)c1ccc2c(c1)OCCO2)C(F)(F)c1ccc(-c2ccc(F)cn2)cc1 [Compound 179, N-((1R,2R)-1-(2,3-dihydrobenzo[b][1,4]dioxin-6-yl)-1-hydroxy-3-(pyrrolidin-1-yl)propan-2-yl)-2,2-difluoro-2-(4-(5-fluoropyridin-2-yl)phenyl)acetamide] | A* (the compound had a % inhibition of a percent inhibition of greater than or equal to about 50%)
8 | O=C(N[C@H](CN1CCCC1)[C@H](O)c1ccc2c(c1)OCCO2)C(F)(F)c1ccc(-c2ccc(F)cc2)s1 [Compound 180, N-((1R,2R)-1-(2,3-dihydrobenzo[b][1,4]dioxin-6-yl)-1-hydroxy-3-(pyrrolidin-1-yl)propan-2-yl)-2,2-difluoro-2-(5-(4-fluorophenyl)thiophen-2-yl)acetamide] | A* (the compound had a % inhibition of a percent inhibition of greater than or equal to about 50%)

Same assay, conditions: Table 2; data without asterisk; read-out: IC50 (nM) generated from Assay 1

Row | IC50 | SMILES
9 | < 50 nM | O=C(N[C@H](CN1CCC1)[C@H](O)c1ccc2c(c1)OCCO2)C(F)(F)c1ccc(-c2ccc(F)cc2)cc1 [Compound 161, N-((1R,2R)-3-(azetidin-1-yl)-1-(2,3-dihydrobenzo[b][1,4]dioxin-6-yl)-1-hydroxypropan-2-yl)-2,2-difluoro-2-(4′-fluoro-[1,1′-biphenyl]-4-yl)acetamide]
10 | < 50 nM | O=C(N[C@H](CN1CCCC1)[C@H](O)c1ccc(OC2CCOCC2)c(Cl)c1)C(F)(F)c1ccc(-c2ccc(F)cc2)cc1 [Compound 163, N-((1R,2R)-1-(3-chloro-4-((tetrahydro-2H-pyran-4-yl)oxy)phenyl)-1-hydroxy-3-(pyrrolidin-1-yl)propan-2-yl)-2,2-difluoro-2-(4′-fluoro-[1,1′-biphenyl]-4-yl)acetamide]
11 | < 50 nM | O=C(N[C@H](CN1CCCC1)[C@H](O)c1ccc2c(c1)OCCO2)C(F)(F)CCc1ccc2c(c1)CCCC2 [Compound 165, N-((1R,2R)-1-(2,3-dihydrobenzo[b][1,4]dioxin-6-yl)-1-hydroxy-3-(pyrrolidin-1-yl)propan-2-yl)-2,2-difluoro-4-(5,6,7,8-tetrahydronaphthalen-2-yl)butanamide]
12 | < 50 nM | O=C(N[C@H](CN1CCCC1)[C@H](O)c1ccc(OC2CC2)c(Cl)c1)C(F)(F)CCc1ccc2c(c1)CCCC2 [Compound 166, N-((1R,2R)-1-(3-chloro-4-cyclopropoxyphenyl)-1-hydroxy-3-(pyrrolidin-1-yl)propan-2-yl)-2,2-difluoro-4-(5,6,7,8-tetrahydronaphthalen-2-yl)butanamide]
13 | < 50 nM | O=C(N[C@H](CN1CCCC1)[C@H](O)c1cc(F)c2c(c1)OCCO2)C(F)(F)CCc1ccc2c(c1)CCCC2 [Compound 167, 2,2-difluoro-N-((1R,2R)-1-(8-fluoro-2,3-dihydrobenzo[b][1,4]dioxin-6-yl)-1-hydroxy-3-(pyrrolidin-1-yl)propan-2-yl)-4-(5,6,7,8-tetrahydronaphthalen-2-yl)butanamide]
14 | < 50 nM | O=C(N[C@H](CN1CCC1)[C@H](O)c1ccc(OC2CC2)c(Cl)c1)C(F)(F)CCc1ccc2ccccc2c1 [Compound 171, N-((1R,2R)-3-(azetidin-1-yl)-1-(3-chloro-4-cyclopropoxyphenyl)-1-hydroxypropan-2-yl)-2,2-difluoro-4-(naphthalen-2-yl)butanamide]
15 | < 50 nM | O=C(N[C@H](CN1CCCC1)[C@H](O)c1ccc(OC2CC2)c(Cl)c1)C(=O)c1ccc2cc(Cl)ccc2c1 [Compound 172, N-((1R,2R)-1-(3-chloro-4-cyclopropoxyphenyl)-1-hydroxy-3-(pyrrolidin-1-yl)propan-2-yl)-2-(6-chloronaphthalen-2-yl)-2-oxoacetamide]
16 | < 50 nM | O=C(N[C@H](CN1CCCC1)[C@H](O)c1ccc(OC2CC2)c(Cl)c1)/C(=N/O)c1ccc2cc(Cl)ccc2c1 [Compound 173, (E)-N-((1R,2R)-1-(3-chloro-4-cyclopropoxyphenyl)-1-hydroxy-3-(pyrrolidin-1-yl)propan-2-yl)-2-(6-chloronaphthalen-2-yl)-2-(hydroxyimino)acetamide]
17 | < 50 nM | O=C(N[C@H](CN1CCCC1)[C@H](O)c1ccc2c(c1)OCCO2)C(=O)c1ccc(-c2ccc(F)cc2)s1 [Compound 174, N-((1R,2R)-1-(2,3-dihydrobenzo[b][1,4]dioxin-6-yl)-1-hydroxy-3-(pyrrolidin-1-yl)propan-2-yl)-2-(5-(4-fluorophenyl)thiophen-2-yl)-2-oxoacetamide]
18 | < 50 nM | O=C(N[C@H](CN1CCCC1)[C@H](O)c1ccc(OC2CC2)c(Cl)c1)C(=O)c1ccc(-c2ccc(F)cn2)cc1 [Compound 175]
19 | < 50 nM | O=C(N[C@H](CN1CCCC1)[C@H](O)c1cc(F)c2c(c1)OCCO2)C(=O)c1ccc(-c2ccc(F)cn2)cc1 [Compound 176, N-((1R,2R)-1-(8-fluoro-2,3-dihydrobenzo[b][1,4]dioxin-6-yl)-1-hydroxy-3-(pyrrolidin-1-yl)propan-2-yl)-2-(4-(5-fluoropyridin-2-yl)phenyl)-2-oxoacetamide]
20 | < 50 nM | O=C(N[C@H](CN1CCCC1)[C@H](O)c1ccc(OC2CCOCC2)c(Cl)c1)/C(=N/O)c1ccc(-c2ccc(F)cc2)cc1 [Compound 177, (E)-N-((1R,2R)-1-(3-chloro-4-((tetrahydro-2H-pyran-4-yl)oxy)phenyl)-1-hydroxy-3-(pyrrolidin-1-yl)propan-2-yl)-2-(4′-fluoro-[1,1′-biphenyl]-4-yl)-2-(hydroxyimino)acetamide]
21 | < 50 nM | O=C(N[C@H](CN1CCCC1)[C@H](O)c1ccc2c(c1)OCCO2)/C(=N/O)c1ccc(-c2ccc(F)cc2)s1 [Compound 181, (Z)-N-((1R,2R)-1-(2,3-dihydrobenzo[b][1,4]dioxin-6-yl)-1-hydroxy-3-(pyrrolidin-1-yl)propan-2-yl)-2-(5-(4-fluorophenyl)thiophen-2-yl)-2-(hydroxyimino)acetamide]
22 | < 50 nM | O=C(N[C@H](CN1CCCC1)[C@H](O)c1ccc(OC2CC2)c(Cl)c1)C(F)(F)c1ccc(-c2ccccn2)cc1 [Compound 182, N-((1R,2R)-1-(3-chloro-4-cyclopropoxyphenyl)-1-hydroxy-3-(pyrrolidin-1-yl)propan-2-yl)-2,2-difluoro-2-(4-(pyridin-2-yl)phenyl)acetamide]
23 | < 50 nM | O=C(N[C@H](CN1CCCC1)[C@H](O)c1cc(F)c2c(c1)OCCO2)C(F)(F)c1ccc(-c2ccc(F)cn2)cc1 [Compound 183, 2,2-difluoro-N-((1R,2R)-1-(8-fluoro-2,3-dihydrobenzo[b][1,4]dioxin-6-yl)-1-hydroxy-3-(pyrrolidin-1-yl)propan-2-yl)-2-(4-(5-fluoropyridin-2-yl)phenyl)acetamide]
